Test results reported in patent US20090048258A1, “Amide Compound” (priority 2005, published 2009).
Where two headings read alike, the source gives them in different places.

Target: T1, Human DGAT1 (Homo sapiens, UniProt O75907)
T1 construct: my translation of the primer: M-G-DYKDDDD-GDRGSSRRR) (N); made in house; host or cells: Sf9 insect cells (recombinant baculovirus BAC-DGAT1, pFASTBAC1); microsome fraction
T1 sequence (O75907 1-488): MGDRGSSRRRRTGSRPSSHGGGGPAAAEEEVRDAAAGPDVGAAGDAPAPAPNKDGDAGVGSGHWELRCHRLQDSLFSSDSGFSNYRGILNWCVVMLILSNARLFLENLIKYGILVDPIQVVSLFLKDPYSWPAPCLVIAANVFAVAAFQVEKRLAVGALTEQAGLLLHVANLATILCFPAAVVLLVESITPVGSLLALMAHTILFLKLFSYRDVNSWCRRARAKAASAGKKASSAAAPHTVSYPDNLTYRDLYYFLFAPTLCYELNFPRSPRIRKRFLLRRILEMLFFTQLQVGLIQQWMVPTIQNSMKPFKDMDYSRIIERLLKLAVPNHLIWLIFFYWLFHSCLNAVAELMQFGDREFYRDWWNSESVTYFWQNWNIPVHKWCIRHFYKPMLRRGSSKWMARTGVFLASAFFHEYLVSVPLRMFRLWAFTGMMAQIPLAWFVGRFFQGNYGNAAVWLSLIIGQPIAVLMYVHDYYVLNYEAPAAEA
Experiment: DGAT inhibitory activity: [14C]-triglyceride synthesis by DGAT1 high expression Sf9 microsome
Assay type: biochemical
Settings: 25 μM [14C]-Oleoyl-CoA, 32° C., 15 min, read-out: DGAT inhibitory activity (according to IC50)
Outline: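 DGAT1 was overexpressed from recombinant baculovirus in Sf9 cells, and microsomes from these cells were the enzyme source. Reactions ran in 100 mM Tris-HCl pH 7.5, 250 mM sucrose, 150 mM MgCl2 and 0.01% BSA. [14C]-triglyceride was extracted into chloroform, separated by TLC and quantified by imaging plate, with inhibition calculated against control and blank (no microsome) counts.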

[1] = Table 2, 25 μM dioleoylglycerol
[2] = Table 1, 25 μM dioleoylglycerol

| IC50 [1] | IC50 [2] | SMILES |
| --- | --- | --- |
| 0.5 to 10 µM |  | O=C(CCC(=O)c1ccc2c(c1)CCO2)Nc1cc(-c2ccccc2C(=O)O)cc(-c2ccccc2)n1 [Example 180, 2-(2-{[4-(2,3-dihydro-1-benzofuran-5-yl)-4-oxobutanoyl]amino}-6-phenylpyridin-4-yl)benzoic acid] |
|  | 0.01 to 0.05 µM | O=C(CCC(=O)c1ccc2c(c1)CCO2)Nc1cc(-c2ccccc2)c(Cc2ccccc2)s1 [Example 49, N-(5-benzyl-4-phenyl-2-thienyl)-4-(2,3-dihydro-1-benzofuran-5-yl)-4-oxobutanamide] |
|  | 0.01 to 0.05 µM | COc1ccc(C(=O)CCC(=O)Nc2cc(-c3ccccc3)c(Cc3ccccc3)s2)cc1OC [Example 48, N-(5-benzyl-4-phenyl-2-thienyl)-4-(3,4-dimethoxyphenyl)-4-oxobutanamide] |
| 0.05 to 0.5 µM |  | CCOc1ccc(C(=O)CCC(=O)Nc2cc(-c3ccccc3)c(Cc3ccccc3)s2)cc1Cl [Example 70, N-(5-benzyl-4-phenyl-2-thienyl)-4-(3-chloro-4-ethoxyphenyl)-4-oxobutanamide] |
| ≤ 0.01 µM |  | CCOc1ccc(C(=O)CCC(=O)Nc2cc(-c3ccc4[nH]ccc4c3)cc(-c3ccccc3)n2)cc1OCC [Example 121, 4-(3,4-diethoxyphenyl)-N-[4-(1H-indol-5-yl)-6-phenylpyridin-2-yl]-4-oxobutanamide] |
| 0.01 to 0.05 µM |  | CCOc1ccc(C(=O)CCC(=O)Nc2cc(-c3ccccc3)c3ccc(/C=C/C#N)cc3n2)cc1OCC [Example 86, N-{7-[(E)-2-cyanovinyl]-4-phenylquinolin-2-yl}-4-(3,4-diethoxyphenyl)-4-oxobutanamide] |
| 0.05 to 0.5 µM |  | CCCCc1ccc(C(=O)c2sc(NC(=O)CCC(=O)c3cc(OCC)c(OCC)cc3C)nc2-c2ccccc2)cc1 [Example 69, N-[5-(4-butylbenzoyl)-4-phenyl-1,3-thiazol-2-yl]-4-(4,5-diethoxy-2-methylphenyl)-4-oxobutanamide] |
|  | ≤ 0.01 µM | CCOc1ccc(C(=O)CCC(=O)Nc2nc(-c3ccccc3)c(Cc3ccccc3)s2)cc1Br [Example 25, N-(5-benzyl-4-phenyl-1,3-thiazol-2-yl)-4-(3-bromo-4-ethoxyphenyl)-4-oxobutanamide] |
|  | ≤ 0.01 µM | CCOc1ccc(C(=O)C(C)CC(=O)Nc2nc(-c3ccccc3)c(Cc3ccccc3)s2)cc1OCC (stereo not drawn) [Example 57, N-(5-benzyl-4-phenyl-1,3-thiazol-2-yl)-4-(3,4-diethoxyphenyl)-3-methyl-4-oxobutanamide] |
| 0.05 to 0.5 µM |  | O=C(CCC(=O)c1ccc2c(c1)CCO2)Nc1cc(-c2cccnc2)cc(-c2ccccc2)n1 [Example 114, 4-(2,3-dihydro-1-benzofuran-5-yl)-4-oxo-N-(6′-phenyl-3,4′-bipyridine-2′-yl)butanamide] |
| 0.05 to 0.5 µM |  | CCOc1ccc(C(=O)CCC(=O)Nc2cc(-c3ccoc3)cc(-c3ccccc3)n2)cc1OCC [Example 117, 4-(3,4-diethoxyphenyl)-N-[4-(3-furyl)-6-phenylpyridin-2-yl]-4-oxobutanamide] |
| 0.5 to 10 µM |  | Cn1cc(-c2cc(NC(=O)CCC(=O)c3ccc4c(c3)CCO4)nc(-c3ccccc3)c2)cn1 [Example 153, 4-(2,3-dihydro-1-benzofuran-5-yl)-N-[4-(1-methyl-1H-pyrazol-4-yl)-6-phenylpyridin-2-yl]-4-oxobutanamide] |
| 0.05 to 0.5 µM |  | CCOc1ccc(C(=O)CCC(=O)Nc2cc(-c3cccc(CCCO)c3)cc(-c3ccccc3)n2)cc1OCC [Example 137, 4-(3,4-diethoxyphenyl)-N-{4-[3-(3-hydroxypropyl)phenyl]-6-phenylpyridin-2-yl}-4-oxobutanamide] |
| 0.5 to 10 µM |  | CCOc1ccc(C(=O)CCC(=O)Nc2cc(C(C)(C)C)nn2-c2ccc(C(C)(C)C)cc2)cc1OCC [Example 100, N-[3-tert-butyl-1-(4-tert-butylphenyl)-1H-pyrazol-5-yl]-4-(3,4-diethoxyphenyl)-4-oxobutanamide] |
| 0.01 to 0.05 µM |  | COc1ccccc1-c1cc(NC(=O)CCC(=O)c2ccc3c(c2)CCO3)nc(-c2ccccc2)c1 [Example 178, 4-(2,3-dihydro-1-benzofuran-5-yl)-N-[4-(2-methoxyphenyl)-6-phenylpyridin-2-yl]-4-oxobutanamide] |
|  | 0.5 to 10 µM | CCOc1ccc(C(=O)CCC(=O)Nc2cc(-c3ccccc3)sc2-c2ccccc2)cc1 [Example 60, N-(2,5-diphenyl-3-thienyl)-4-(4-ethoxyphenyl)-4-oxobutanamide] |

| IC50 [1] | IC50 [2] | SMILES |
| --- | --- | --- |
| 0.05 to 0.5 µM |  | CCOc1ccc(C(=O)CCC(=O)Nc2cc(-c3ccc(OCCNC(=O)OC(C)(C)C)cc3)c3ccccc3n2)cc1OCC [Example 92, tert-butyl {2-[4-(2-{[4-(3,4-diethoxyphenyl)-4-oxobutanoyl]amino}quinolin-4-yl)phenoxy]ethyl}carbamate] |
| 0.01 to 0.05 µM |  | N#CCc1cccc(-c2cc(NC(=O)CCC(=O)c3ccc4c(c3)CCO4)nc(-c3ccccc3)c2)c1 [Example 164, N-{4-[3-(cyanomethyl)phenyl]-6-phenylpyridin-2-yl}-4-(2,3-dihydro-1-benzofuran-5-yl)-4-oxobutanamide] |
| 0.05 to 0.5 µM |  | CCOc1ccc(C(=O)CCC(=O)Nc2cc(-c3ccccc3)c3ccc(/C=C/C(=O)OC(C)(C)C)cc3n2)cc1OCC [Example 82, tert-butyl (2E)-3-(2-{[4-(3,4-diethoxyphenyl)-4-oxobutanoyl]amino}-4-phenylquinoline-7-yl)acrylate] |
|  | 0.01 to 0.05 µM | CCOc1ccc(C(=O)CCC(=O)Nc2cc(-c3ccccc3)c(Cc3ccccc3)s2)cc1OCC [Example 17, N-(5-benzyl-4-phenyl-2-thienyl)-4-(3,4-diethoxyphenyl)-4-oxobutanamide] |
| 0.5 to 10 µM |  | CCOc1ccc(C(=O)CCC(=O)Nc2cc(-c3ccc(CCC(=O)O)cc3)cc(-c3ccccc3)n2)cc1OCC [Example 125, 3-[4-(2-{[4-(3,4-diethoxyphenyl)-4-oxobutanoyl]amino}-6-phenylpyridin-4-yl)phenyl]propanoic acid] |
|  | 0.05 to 0.5 µM | CCOc1cc(NC(=O)CCC(=O)c2ccc(OCC)c(OCC)c2)nc(-c2ccccc2)c1 [Example 40, 4-(3,4-diethoxyphenyl)-N-(4-ethoxy-6-phenylpyridin-2-yl)-4-oxobutanamide] |
| 0.5 to 10 µM |  | O=C(O)CCc1ccc(-c2cc(NC(=O)CCC(=O)c3ccc4c(c3)CCO4)nc(-c3ccccc3)c2)cc1 [Example 157, 3-[4-(2-{[4-(2,3-dihydro-1-benzofuran-5-yl)-4-oxobutanoyl]amino}-6-phenylpyridin-4-yl)phenyl]propanoic acid] |
| 0.05 to 0.5 µM |  | O=C(CCC(=O)c1ccc2c(c1)CCO2)Nc1cc(-c2ccccc2)cc(-c2ccccc2)n1 [Example 104, 4-(2,3-dihydro-1-benzofuran-5-yl)-N-(4,6-diphenylpyridin-2-yl)-4-oxobutanamide] |
| 0.05 to 0.5 µM |  | COc1ccc(-c2cc(NC(=O)CCC(=O)c3ccc4c(c3)CCO4)nc(-c3ccccc3)c2)cc1 [Example 155, 4-(2,3-dihydro-1-benzofuran-5-yl)-N-[4-(4-methoxyphenyl)-6-phenylpyridin-2-yl]-4-oxobutanamide] |
|  | 0.05 to 0.5 µM | CCOc1ccc(C(=O)CCC(=O)Nc2cn(Cc3ccccc3)nc2-c2ccccc2)cc1OCC [Example 20, N-(1-benzyl-3-phenyl-1H-pyrazol-4-yl)-4-(3,4-diethoxyphenyl)-4-oxobutanamide] |
|  | 0.05 to 0.5 µM | O=C(CCC(=O)c1ccccc1)Nc1nc(-c2ccccc2)c(Cc2ccccc2)s1 [Example 2, N-(5-benzyl-4-phenyl-1,3-thiazol-2-yl)-4-oxo-4-phenylbutanamide] |
| 0.05 to 0.5 µM |  | O=C(CCC(=O)c1ccc2c(c1)CCO2)Nc1cc(-c2cccc(CO)c2)cc(-c2ccccc2)n1 [Example 167, 4-(2,3-dihydro-1-benzofuran-5-yl)-N-{4-[3-(hydroxymethyl)phenyl]-6-phenylpyridin-2-yl}-4-oxobutanamide] |
| 0.05 to 0.5 µM |  | CCOc1ccc(C(=O)CCC(=O)Nc2cc(-c3ccccc3)cc(Cc3ccccc3)n2)cc1OCC [Example 95, N-(6-benzyl-4-phenylpyridin-2-yl)-4-(3,4-diethoxyphenyl)-4-oxobutanamide] |
| 0.5 to 10 µM |  | Cc1ccc(C(=O)CCC(=O)Nc2cc(-c3ccccc3)cc(-c3ccccc3)n2)cc1C [Example 111, 4-(3,4-dimethylphenyl)-N-(4,6-diphenylpyridin-2-yl)-4-oxobutanamide] |
| 0.05 to 0.5 µM |  | CCOc1ccc(C(=O)CCC(=O)Nc2cc(-c3ccc(C)cc3)c3cc(/C=C/C(=O)OC(C)(C)C)ccc3n2)cc1OCC [Example 78, tert-butyl (2E)-3-[2-{[4-(3,4-diethoxyphenyl)-4-oxobutanoyl]amino}-4-(4-methylphenyl)quinoline-6-yl]acrylate] |

| SMILES | IC50 [1] | IC50 [2] |
| --- | --- | --- |
| CCCCOCCOc1cc(NC(=O)CCC(=O)c2ccc(OCC)c(OCC)c2)nc(-c2ccccc2)c1 [Example 107, N-[4-(2-butoxyethoxy)-6-phenylpyridin-2-yl]-4-(3,4-diethoxyphenyl)-4-oxobutanamide] | 0.05 to 0.5 µM |  |
| CCCCOc1cccc(-c2cc(NC(=O)CCC(=O)c3ccc4c(c3)CCO4)nc(-c3ccccc3)c2)c1 [Example 166, N-[4-(3-butoxyphenyl)-6-phenylpyridin-2-yl]-4-(2,3-dihydro-1-benzofuran-5-yl)-4-oxobutanamide] | 0.5 to 10 µM |  |
